# Experimental data: US5312831A, “Urethanes and ureas that induce cytokine production” (American Cyanamid Company, priority 1993, dated 1994)
# Experiments:
# Assay type in all cases: in vivo, mouse
# IL-6 = test: Serum IL-6 production in mice after single s.c. injection (7TD1 bioassay); conditions: serum 4 h post injection
# Description: Description of Biological Assays Interleukin 6(IL-6) assay for structure function analysis--Test compounds are dissolved in water and administered subcutaneously in 0.2 ml to deliver a dose of 0.1-10 mg/kg. The less soluble compounds are first dissolved in 100% ethanol and then brought to the appropriate concentration in water. Four hours post injection, the mice are bled and the serum is retrieved. The IL-6 dependent cell line 7TDl is used to assay serial dilutions of sera for IL-6 content. 7TDl cells (1×10^4) are placed in microtiter wells and incubated at 37° C. for 72 hours with standard recombinant mouse IL-6 or with dilutions of serum to be tested. Over the last 6 hours, the cells are pulsed with ^3 H-Tdr (μci). Cells are then harvested and the degree of proliferation determined by the uptake of ^3 H-Tdr as measured by liquid scintillation spectrometry. The concentration of IL-6 in serum is calculated from standard curves utilizing recombinant IL-6 from R&D Systems Inc. and are reported in units of IL-6 activity as defined by the manufacturer.
# CSF = test: Serum colony stimulating factor (CSF) assay in mice; conditions: serum 4 hours after injection
# Description: Colony forming assays Granulocyte-Macrophage (CFU-GM)--Mice are treated with 150 mg/kg of 5-Fu and treatment with test compound begins 24 hrs. later. On consecutive days, mice are killed by cervical dislocation and the femurs removed under sterile conditions. Femurs are flushed with 1 ml of ice cold medium (Iscove's supplemented with 20% FCS, 1% penicillin-streptomycin, 1% glutamine and 5×10^-5 M 2-mercaptoethanol). Bone marrow cells (5×10^5) are then plated in 12×75 mm tissue culture plates in 3 ml of warm ararose (3%) in Iscove's medium with 100 Units/ml of recombinant mouse GM-CSF purchased from Genzyme (Boston, Mass.). Plates are incubated for 7 days at 37° C. in 5% CO2. After 7 days, colonies of 50 cells or greater are enumerated under a dissecting microscope.
# Bone marrow cells are prepared as described above for the CFU-GM assay. The cells are then incubated in soft agar with an 0.3% final concentration of serum taken from mice 4 hours after injection with test compounds. After 7 days of incubation at 37° C., the number of colony forming (CFU) cells per 10^5 plated bone marrow cells is determined by counting colonies of more than 50 cells under a dissecting microscope. The data are reported as CFU/10^5 bone marrow cells.
# neutrophils [1] = test: Neutrophil recovery in 5-FU treated mice; conditions: mouse, in vivo
# Description: Circulating Neutrophil Assay--Mice are treated with 5-FU (150 mg/kg) and beginning 24 hrs. later, treated daily with the test compound. Mice are bled daily by retroorbital puncture in heparinized capillary tubes. Circulating WBC counts are determined by Coulter counter. Blood smears are stained with Wright-Geimsa solution and the percentage circulating neutrophils determined by differential counting under a microscope.
# 5-Fluorouracil (5-FU) Induced Neutropenia In Mice--Mice are treated ip with 150 mg/kg of the chemotherapy agent 5-FU which induces a severe loss of neutrophils in the peripheral blood 5-6 days later. Twenty-four hrs. after the dose, treatment with the test compounds is initiated. The effect of the test compounds on recovery of neutrophil progenitor cells in the bone marrow is determined by the CFU-GM assay. The recovery of circulating neutrophils is followed by differential staining of the peripheral blood.
# *Data from 10 mice/group on day 7 post treatment with 150 mg/kg of 5FU.
# Beginning 24 hrs. after 5FU dose, mice were treated daily with test
# compound at concentrations indicated. Neutrophil count for normal mice (n
# **Mice treated with 5FU and vehicle only.
# neutrophils [2] = test: Neutrophil recovery in 5-FU treated mice; conditions: day 7 post 5FU, n = 6 mice/group, 0 dose 54 ± 22
SMILES,IL-6 (IL-6; 1.0 mg/kg s.c.) [U/ml],IL-6 (IL-6; 10.0 mg/kg s.c.) [U/ml],"CSF production, CFU/100,000 Bone Marrow Cells (CSF; 1.0 mg/kg)","CSF production, CFU/100,000 Bone Marrow Cells (CSF; 10.0 mg/kg)",IL-6 (IL-6; 0.1 mg/kg s.c.) [U/ml],"CSF production, CFU/100,000 Bone Marrow Cells (CSF; 0.1 mg/kg)",neutrophil recovery in 5-FU treated mice (in words) (neutrophils [1]),Neutrophils/cu. mm. (neutrophils [2]; 1 μg/kg daily),Neutrophils/cu. mm. (neutrophils [2]; 10 μg/kg daily),Neutrophils/cu. mm. (neutrophils [2]; 100 μg/kg daily)
CCCCCCC(=O)NC(CNC(=O)N[C@@H](CCCC(N)C(=O)OC)C(=O)N[C@H](C)C(=O)OC)C(=O)OCc1ccccc1 (stereo partly shown) [Example 80],1712 ± 168,3624 ± 611,"91 ± 3 CFU/100,000 Bone Marrow Cells","121 ± 9 CFU/100,000 Bone Marrow Cells",,,,,,
"CCCCCCC(=O)NC(CNC(=O)N[C@@H](CCCC(NC(=O)OC(C)(C)C)C(=O)OC)C(=O)N[C@H](C)C(=O)OC)C(=O)O (stereo partly drawn) [Example 81, N-N^2-[[[2-carboxy-2-[(1-oxoheptyl)amino]ethyl]amino]carbonyl]-N^6-[(1,1-dimethylethoxy)carbonyl]-6-(methoxycarbonyl)-L-lysyl-D-alanine methyl ester]",56 ± 19,199 ± 23,"69 ± 14 CFU/100,000 Bone Marrow Cells","101 ± 7 CFU/100,000 Bone Marrow Cells",,,,,,
"CCCCOc1ccc(CC(=O)NC(C(=O)O)C(C)OC(=O)N[C@@H](CCC[C@@H](N)C(=O)O)C(=O)N[C@H](C)C(=O)O)cc1 (stereo partly drawn) [Example 34, N-[N^2-[[2-[[(4-Butoxyphenyl)acetyl]amino]-2-carboxy-1-methylethoxy]carbonyl]-(R)-6-carboxy-L-lysyl]-D-Alanine]",5063 ± 302,,,,3610 ± 347,,,,,
"CCCCCCC(=O)N[C@@H](C(=O)O)[C@H](C)OC(=O)N[C@@H](CCC[C@@H](N)C(=O)O)C(=O)N[C@H](C)C(=O)O [Example 29, [S-(R*,S*)]-N-[(R)-6-carboxy-N^2-[[2-carboxy-1-methyl-2-[(1-oxoheptyl)amino]ethoxy]carbonyl]-L-lysyl]-D-Alanine]",203,537,"101 ± 46 CFU/100,000 Bone Marrow Cells",,0,"0 ± 0 CFU/100,000 Bone Marrow Cells",,,,
CCCCCCC(=O)NC(CNC(=O)N[C@@H](CCCC(N)C(=O)OC)C(=O)N[C@H](C)C(=O)OC)C(=O)O (stereo partly shown) [Example 82],2181 ± 92,3188 ± 345,"108 ± 11 CFU/100,000 Bone Marrow Cells","115 ± 3 CFU/100,000 Bone Marrow Cells",,,,,,
CCCCCCC(=O)NC(CNC(=O)N[C@@H](CCCC(NC(=O)OC(C)(C)C)C(=O)O)C(=O)N[C@H](C)C(=O)O)C(=O)O (stereo partly shown) [Example 83],332 ± 38,1818 ± 243,"204 ± 9 CFU/100,000 Bone Marrow Cells","123 ± 22 CFU/100,000 Bone Marrow Cells",,,,,,
"CCCCCCC(=O)N[C@H](C(=O)O)[C@H](C)OC(=O)N[C@@H](CCC[C@@H](N)C(=O)O)C(=O)N[C@H](C)C(=O)O [Example 30, [S-(R*,R*)]-N-(R)-6-carboxy-N^2-[[2-Carboxy-1-methyl-2-[(1-oxoheptyl)amino]ethoxy]carbonyl]-L-lysyl]-D-Alanine]",,,,,328 ± 107,,,,,
"CCCCCC1CCC(C(=O)NC(C(=O)O)C(C)OC(=O)N[C@@H](CCC[C@@H](N)C(=O)O)C(=O)N[C@H](C)C(=O)O)CC1 (stereo partly drawn) [Example 33, [(R)-6-Carboxy-N^2-[[2-carboxy-1-methyl-2-[[(4-pentylcyclohexyl)carbonyl]amino]ethoxy]carbonyl]-L-lysyl]-D-Alanine]",3767 ± 457,,,,1651 ± 100,,,,,
"CCCCCCC(=O)N[C@H](C(=O)O)[C@@H](C)OC(=O)N[C@@H](CCC[C@@H](N)C(=O)O)C(=O)N[C@H](C)C(=O)O (relative stereo) [Example 31, R-(R*,S*)]-N-(R)-6-carboxy-N^2-[[2-carboxy-1-methyl-2-[(1-oxoheptyl)amino]ethoxy]carbonyl]-L-lysyl]-D-Alanine]",,,,,294 ± 24,,,,,
CCCCCCC(=O)NC(CNC(=O)N[C@@H](CCCC(N)C(=O)O)C(=O)N[C@H](C)C(=O)O)C(=O)O (stereo partly shown) [Example 84],3865 ± 688,2512 ± 209,"118 ± 15 CFU/100,000 Bone Marrow Cells","131 ± 10 CFU/100,000 Bone Marrow Cells",1963 ± 97,"129 ± 14 CFU/100,000 Bone Marrow Cells",induce neutrophil recovery in 5-FU treated mice,427 ± 211 /cu. mm.,570 ± 224 /cu. mm.,2194 ± 629 /cu. mm.
